Laboratory results from ChEMBL document CHEMBL1201862, “PubChem BioAssay data set” (2004).
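A five-concentration, 48-hour dose response in 96-well plates underlies each endpoint, interpolated linearly between surrounding concentrations. At the GI50, growth is halved.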 Calls of active or inactive are those of the source. Rule as the data show it: active = GI50 up to about 1.1 µM and inactive = higher.

How the values were obtained:
Experiment in all cases: NCI tumour cell line growth inhibition, 48 h
NCI-H460 = system: NCI-H460
NCI-H23 = system: NCI-H23
SK-MEL-5 = system: SK-MEL-5
A549 = system: A549
IGROV-1 = system: IGROV-1
SNB-75 = system: SNB-75
LOX IMVI = system: LOX IMVI
CCRF-CEM = system: CCRF-CEM
U-251 = system: U-251
CAKI-1 = system: CAKI-1
HOP-92 = system: HOP-92
MOLT-4 = system: MOLT-4
HCT-116 = system: HCT-116
T47D = system: T47D
TK-10 = system: TK-10
UACC-62 = system: UACC-62
MDA-MB-435 = system: MDA-MB-435
NCI/ADR-RES = system: NCI/ADR-RES
SF-295 = system: SF-295
OVCAR-4 = system: OVCAR-4

Structure (SMILES) | GI50 (NCI-H460) | GI50 (NCI-H23) | GI50 (SK-MEL-5) | GI50 (A549) | GI50 (IGROV-1) | GI50 (SNB-75) | GI50 (LOX IMVI) | GI50 (CCRF-CEM) | GI50 (U-251) | GI50 (CAKI-1) | GI50 (HOP-92) | GI50 (MOLT-4) | GI50 (HCT-116) | GI50 (T47D) | GI50 (TK-10) | GI50 (UACC-62) | GI50 (MDA-MB-435) | GI50 (NCI/ADR-RES) | GI50 (SF-295) | GI50 (OVCAR-4)
CC[C@@H](/C=C\CCC1(C[C@@H](N)CCC=C(C)C)OCCO1)O[Si](C(C)C)(C(C)C)C(C)C | 18.4 µM (inactive) | 21.1 µM (inactive) | 18.1 µM (inactive) | 18.2 µM (inactive) | 15.8 µM (inactive) | 18.9 µM (inactive) | 4.97 µM (inactive) | 11.6 µM (inactive) | 19.9 µM (inactive) | 18.8 µM (inactive) | 14.9 µM (inactive) | 17.6 µM (inactive) | 17.1 µM (inactive) | 23.2 µM (inactive) | 17.1 µM (inactive) | 17.8 µM (inactive) | 18.4 µM (inactive) | 16.8 µM (inactive) | 19 µM (inactive) | 19.1 µM (inactive)
O=C1OC(c2ccc(O)c(-c3ccccc3)c2)(c2ccc(O)c(-c3ccccc3)c2)c2c(Cl)c(Cl)c(Cl)c(Cl)c21 | > 100 µM (inactive) | > 100 µM (inactive) | > 100 µM (inactive) | > 100 µM (inactive) | > 100 µM (inactive) | > 100 µM (inactive) | > 100 µM (inactive) | > 100 µM (inactive) | > 100 µM (inactive) | > 100 µM (inactive) | > 100 µM (inactive) | > 100 µM (inactive) | > 100 µM (inactive) | > 100 µM (inactive) | > 100 µM (inactive) | > 100 µM (inactive) | > 100 µM (inactive) | > 100 µM (inactive) | > 100 µM (inactive) | > 100 µM (inactive)
COc1ccc(Cc2cc(OC)c(OC)c(OC)c2)cc1 | 0.286 µM (active) | 0.395 µM (active) | 0.167 µM (active) | 0.417 µM (active) | 0.863 µM (active) | 0.192 µM (active) | 0.393 µM (active) | 0.165 µM (active) | 0.261 µM (active) | 0.254 µM (active) | 0.805 µM (active) | 0.221 µM (active) | 0.207 µM (active) | 30.8 µM (inactive) | 6.79 µM (inactive) | 0.129 µM (active) | 0.0236 µM (active) | 0.146 µM (active) | 0.188 µM (active) | 10.6 µM (inactive)
O=C(CC(C(=O)c1ccsc1)c1ccccc1)c1ccccc1 (centres undefined) | > 100 µM (inactive) | 0.0217 µM (active) | 43.2 µM (inactive) | 28 µM (inactive) | > 100 µM (inactive) | > 100 µM (inactive) | > 100 µM (inactive) | 69.2 µM (inactive) | 95.9 µM (inactive) | > 100 µM (inactive) | > 100 µM (inactive) | > 100 µM (inactive) | 75 µM (inactive) | 20.2 µM (inactive) | > 100 µM (inactive) | 71.1 µM (inactive) | 54.2 µM (inactive) | 18.7 µM (inactive) | 76.9 µM (inactive) | 6.5 µM (inactive)
C=C(C)C(=O)OC1CC2(C)OC(=CC2=O)C(C)CC2OC(=O)C(=C)C12 (centres undefined) | 11.9 µM (inactive) | 8.89 µM (inactive) | 3.52 µM (inactive) | 18.9 µM (inactive) | 8.85 µM (inactive) | 20.2 µM (inactive) | 2.94 µM (inactive) | 0.839 µM (active) | 16.5 µM (inactive) | 2.7 µM (inactive) | 5.56 µM (inactive) | 2.9 µM (inactive) | 1.75 µM (inactive) | 4.57 µM (inactive) | 7.41 µM (inactive) | 10.8 µM (inactive) | 4.13 µM (inactive) | 8.95 µM (inactive) | 19 µM (inactive) | 3.99 µM (inactive)
OCC1OC(NC(=S)NCSCCC(F)(F)C(F)(F)C(F)(F)C(F)(F)C(F)(F)C(F)(F)F)C(O)C(O)C1O (centres undefined) | 34 µM (inactive) | 39.5 µM (inactive) | > 10 µM (inactive) | 58.1 µM (inactive) | 31.8 µM (inactive) | 96.4 µM (inactive) | 34.4 µM (inactive) | 23.3 µM (inactive) | 17.5 µM (inactive) | 76 µM (inactive) | 22.7 µM (inactive) | 21.5 µM (inactive) | 34.4 µM (inactive) | > 100 µM (inactive) | 49.7 µM (inactive) | 32.7 µM (inactive) | 16.4 µM (inactive) | > 100 µM (inactive) | 23.1 µM (inactive) | > 100 µM (inactive)
O=C(CN1CCN(Cc2ccccc2)CC1)N1CCCn2c1nc1ccccc1c2=O | > 100 µM (inactive) | > 100 µM (inactive) | > 100 µM (inactive) | > 100 µM (inactive) | > 100 µM (inactive) | > 100 µM (inactive) | > 100 µM (inactive) | > 100 µM (inactive) | > 100 µM (inactive) | > 100 µM (inactive) | 4.58 µM (inactive) | > 100 µM (inactive) | > 100 µM (inactive) | > 100 µM (inactive) | > 100 µM (inactive) | > 100 µM (inactive) | > 100 µM (inactive) | > 100 µM (inactive) | > 100 µM (inactive) | > 100 µM (inactive)
OCCN1CCN(c2nc(N3CCCC3)c3nc(Cl)c(NCc4ccccc4)nc3n2)CC1 | 5.58 µM (inactive) | 14.5 µM (inactive) | 3.51 µM (inactive) | 6.59 µM (inactive) | 8.43 µM (inactive) | 3.27 µM (inactive) | 5.4 µM (inactive) | 3.8 µM (inactive) | 5.65 µM (inactive) | 9.44 µM (inactive) | 5.16 µM (inactive) | 3.19 µM (inactive) | 5.6 µM (inactive) | 5.32 µM (inactive) | 6.85 µM (inactive) | 4.65 µM (inactive) | 3.98 µM (inactive) | 10.9 µM (inactive) | 5.53 µM (inactive) | 11.2 µM (inactive)
COc1ccc(N2C=Nn3c(nc4sc5c(c4c3=O)CCCC5)C2)cc1 | 86.9 µM (inactive) | 26.1 µM (inactive) | > 100 µM (inactive) | > 100 µM (inactive) | > 100 µM (inactive) | 8.77 µM (inactive) | 33.6 µM (inactive) | > 100 µM (inactive) | 16.7 µM (inactive) | 40.4 µM (inactive) | 12.2 µM (inactive) | > 100 µM (inactive) | 19.4 µM (inactive) | > 100 µM (inactive) | 77.1 µM (inactive) | 12.2 µM (inactive) | > 100 µM (inactive) | > 100 µM (inactive) | 18.3 µM (inactive) | > 100 µM (inactive)
CN(C)CC1CC/C(=C\c2ccc(O)cc2)C1=O (centres undefined) | 17.5 µM (inactive) | 6.67 µM (inactive) | 8.28 µM (inactive) | 19 µM (inactive) | 11.3 µM (inactive) | 11 µM (inactive) | 2.3 µM (inactive) | 0.933 µM (active) | 6.71 µM (inactive) | 1.63 µM (inactive) | 2.48 µM (inactive) | 1.69 µM (inactive) | 2 µM (inactive) | 2.14 µM (inactive) | 3.2 µM (inactive) | 6.12 µM (inactive) | 5.07 µM (inactive) | 5.32 µM (inactive) | 19.2 µM (inactive) | 7.38 µM (inactive)
CCOC(=O)c1ccc(NC(=O)O/N=C(/Cl)C(C)C)cc1 | 19.6 µM (inactive) | 20 µM (inactive) | 16.1 µM (inactive) | 21.7 µM (inactive) | 19.4 µM (inactive) | 12.9 µM (inactive) | 4.95 µM (inactive) | 0.953 µM (active) | 19.1 µM (inactive) | 4.63 µM (inactive) | 1.82 µM (inactive) | 1.92 µM (inactive) | 8.05 µM (inactive) | 2.75 µM (inactive) | 16.4 µM (inactive) | 18.9 µM (inactive) | 16 µM (inactive) | 19 µM (inactive) | 19.1 µM (inactive) | 14.5 µM (inactive)
Cc1c(C)c(S(=O)(=O)N(CCCCN)OCCCN)c(C)c2c1OC(C)(C)CC2 | 12.9 µM (inactive) | 16.4 µM (inactive) | 33 µM (inactive) | 19.2 µM (inactive) | 4.51 µM (inactive) | 13.8 µM (inactive) | 6.22 µM (inactive) | 16.4 µM (inactive) | 21.9 µM (inactive) | 32.1 µM (inactive) | 17.8 µM (inactive) | 19.6 µM (inactive) | 16.6 µM (inactive) | 23.7 µM (inactive) | 14.5 µM (inactive) | 20.7 µM (inactive) | 16.5 µM (inactive) | 74.6 µM (inactive) | 17.7 µM (inactive) | 13.8 µM (inactive)
O=C1C=C(Br)C(=O)C12CCc1ccccc12 (centres undefined) | 22.6 µM (inactive) | 19.7 µM (inactive) | 19.7 µM (inactive) | 23.5 µM (inactive) | 20.5 µM (inactive) | 13.6 µM (inactive) | 12.5 µM (inactive) | 2.66 µM (inactive) | 21.7 µM (inactive) | 6.47 µM (inactive) | 13.5 µM (inactive) | 2.43 µM (inactive) | 10.5 µM (inactive) | 17.8 µM (inactive) | 17.8 µM (inactive) | 16.8 µM (inactive) | 14.7 µM (inactive) | 27.7 µM (inactive) | 18.6 µM (inactive) | 24.7 µM (inactive)
CN(C)CCCNC(=O)c1cc(NC(=O)c2cc(NC(=O)CCCn3c4ccccc4c4ccccc43)cn2C)cn1C | 10.1 µM (inactive) | 14.8 µM (inactive) | 5.81 µM (inactive) | 17.5 µM (inactive) | 26.5 µM (inactive) | 14.4 µM (inactive) | 6.59 µM (inactive) | 7.71 µM (inactive) | 11.4 µM (inactive) | 19.1 µM (inactive) | 14.7 µM (inactive) | 2.02 µM (inactive) | 3.27 µM (inactive) | 7.03 µM (inactive) | 12.4 µM (inactive) |  | 9.29 µM (inactive) | 19.6 µM (inactive) | 18.5 µM (inactive) | 15.5 µM (inactive)
